SMILES strings stand for the structures.

This is an account of results in BindingDB's records for doi:10.1021/jm00166a002 (Berlex Laboratories, 1990).

The target in this assay is Beta-1 adrenergic receptor (Canis familiaris). In words: In vitro Beta-1 adrenergic receptor affinity in partially purified membrane fractions from canine cardiac tissue using […] (4.5 nM).

As a reminder, the IC50 is the concentration needed to halve the response being measured. Lower therefore signals greater potency in that assay. `Cc1nccn1-c1ccc(OCCNCC(O)COc2ccc(N(C)S(C)(=O)=O)cc2)cc1` (configuration not stated) yielded an IC50 of 18 µM.

As for `CN(c1ccc(OCC(O)CNCCOc2ccc(-n3ccnc3)cc2)cc1)S(C)(=O)=O` (configuration not stated), the IC50 stood at 21 µM.
